Experimental data reported in patent US8999925B2 (priority 2013, dated 2015).

How the values were obtained:
[1] = tested on: POPC LUVs or purified PICV
[2] = tested on: Tamiami virus (TAMV); type: cell-based
[3] = tested on: pseudotyped VSV expressing LASV GPC (VSVΔLASV); type: cell-based
[4] = tested on: vesicular stomatitis virus (VSV); type: cell-based
[5] = tested on: herpes simplex virus-1 (HSV-1, McIntyre strain); type: cell-based
[6] = tested on: measles virus (MV); type: cell-based
[7] = tested on: R18-labeled PICV; type: biochemical
[8] = tested on: Purified PICV
[9] = tested on: PICV; type: cell-based
[10] = tested on: PICV (CoAn 3739)

Question: PGGYALEQWAIIWAGIKAF [Peptide 8] was tested. Which DPH anisotropy [1] did it give?
Answer: Its DPH anisotropy is “purely incidental alterations in acyl chain packing”.

Question: `CC[C@H](C)[C@H](NC(=O)[C@H](CC(C)C)NC(=O)CNC(=O)[C@H](CC(N)=O)NC(=O)[C@@H](NC(=O)[C@@H](NC(=O)[C@H](CCCCN)NC(=O)[C@H](CCCCN)NC(=O)[C@H](Cc1ccccc1)NC(=O)[C@H](CC(C)C)NC(=O)[C@H](CC(N)=O)NC(=O)[C@@H](N)CC(C)C)[C@@H](C)O)[C@@H](C)CC)C(=O)N[C@@H](CO)C(=O)N[C@@H](CC(=O)O)C(=O)N[C@@H](CO)C(=O)N[C@@H](CC(C)C)C(=O)N[C@H](C(=O)N[C@H](C(=O)N[C@@H](CCCNC(=N)N)C(=O)O)[C@@H](C)CC)C(C)C` [Peptide 1] was tested. Which plaque reduction [2] did it give?
Answer: Its plaque reduction is 45.0±5.0%.

Question: And the plaque reduction [3]?
Answer: Its plaque reduction is 63.8±13.0%.

Question: And the “inhibition of plaque formation” value [4]?
Answer: The value was “not significantly inhibited”.

Question: And the “inhibition of plaque formation” value [5]?
Answer: The value was “not significantly inhibited”.

Question: And the “inhibition of plaque formation” value [6]?
Answer: The value was “not significantly inhibited”.

Question: What about the “dequenching of PICV pre-incubated at pH 5.0 prior to labeling” value ([7]; pH 5) of the same compound?
Answer: The value was “did not induce significant dequenching”.

Question: What about the “dequenching of R18-labeled virus” value ([7]; pH 7.4) of the same compound?
Answer: The value was “extensive dequenching”.

Question: And the “presence of pre-fusion glycoprotein spikes (cryo-EM)” value [8]?
Answer: The value was “Disappearance of pre-fusion glycoprotein spikes was also observed in a significant number of particles”.

Question: And the “size distribution of viral particles (cryo-EM)” value [8]?
Answer: The value was “greater shift toward larger particles”.

Question: What about the DPH anisotropy [1] of the same compound?
Answer: Its DPH anisotropy is “Concentration-dependent increases in probe anisotropy values were observed to a greater degree with Peptide 1 than with Peptide 8”.

Question: What about the TMA-DPH anisotropy [1] of the same compound?
Answer: Its TMA-DPH anisotropy is “increased substantially”.

Question: And the “effect on viral infectivity” value [9]?
Answer: The value was “no significant antiviral activity or increase in viral infectivity was observed”.

Question: And the “effect on viral infectivity (plaque number)” value [9]?
Answer: The value was “no increase in plaque number was observed”.

Question: What about the “peptide concentration giving complete inhibition of plaque formation” value [10] of the same compound?
Answer: Its value is “approximately 20 μM”.

Question: What about the IC50 ([10]; 1 h) of the same compound?
Answer: Its IC50 is 7.05 ± 2.19 µM.
